From PubChem BioAssay (NCI)
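Test compounds were applied to cells in 96-well plates for 48 hours at 5 doses. TGI denotes the concentration required for complete inhibition of growth.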

Experiments:
Assay in all cases: NCI anticancer screen, dose series, 48 h
[1] = system: NCI/ADR-RES ovarian
[2] = system: MDA-MB-231 breast
[3] = system: OVCAR-3 ovarian
[4] = system: NCI-H460 lung
[5] = system: SNB-75 CNS
[6] = system: SR leukemia
[7] = system: SNB-19 CNS
[8] = system: 786-0 renal
[9] = system: SW-620 colon
[10] = system: PC-3 prostate
[11] = system: T-47D breast
[12] = system: OVCAR-5 ovarian
[13] = system: HOP-62 NSCLC
[14] = system: OVCAR-4 ovarian
[15] = system: SK-OV-3 ovarian
[16] = system: ACHN renal
[17] = system: SK-MEL-28 melanoma
[18] = system: TK-10 renal
[19] = system: HCT-116 colon
[20] = system: HCC-2998 colon
[21] = system: UACC-62 melanoma
[22] = system: NCI-H522 lung
[23] = system: SK-MEL-5 melanoma
[24] = system: LOX IMVI melanoma
[25] = system: SF-539 CNS
[26] = system: MCF7 breast
[27] = system: NCI-H23 lung
[28] = system: SK-MEL-2 melanoma
[29] = system: KM12 colon
[30] = system: SF-268 CNS
[31] = system: M14 melanoma
[32] = system: U251 CNS
[33] = system: K-562 leukemia
[34] = system: MOLT-4 leukemia
[35] = system: CCRF-CEM leukemia
[36] = system: A549 NSCLC
[37] = system: EKVX NSCLC
[38] = system: CAKI-1 renal
[39] = system: SF-295 CNS
[40] = system: UACC-257 melanoma
[41] = system: UO-31 renal
[42] = system: RXF 393 renal
[43] = system: HT29 colon
[44] = system: COLO 205 colon
[45] = system: MDA-N
[46] = system: IGROV1 ovarian
[47] = system: HCT-15 colon
[48] = system: BT-549 breast
[49] = system: NCI-H226 lung
[50] = system: SN12C renal
[51] = system: MDA-MB-435
[52] = system: DU-145 prostate
[53] = system: HS 578T breast
[54] = system: OVCAR-8 ovarian
[55] = system: HOP-92 NSCLC
[56] = system: HL-60(TB) leukemia
[57] = system: MALME-3M melanoma
[58] = system: A498 renal

COc1ccc(C2(CC(C)C)CCN(S(=O)(=O)c3ccc(C)cc3)C2)cc1OC (centres undefined)
TGI [1]: 70.5 µM
TGI [2]: > 100 µM
TGI [3]: 55.8 µM
TGI [4]: > 100 µM
TGI [5]: > 100 µM
TGI [6]: > 100 µM
TGI [7]: > 100 µM
TGI [8]: > 100 µM
TGI [9]: > 100 µM
TGI [10]: > 100 µM
TGI [11]: > 100 µM
TGI [12]: > 100 µM
TGI [13]: > 100 µM
TGI [14]: > 100 µM
TGI [15]: > 100 µM
TGI [16]: > 100 µM
TGI [17]: > 100 µM
TGI [18]: > 100 µM
TGI [19]: 92.6 µM
TGI [20]: > 100 µM
TGI [21]: > 100 µM
TGI [22]: > 100 µM
TGI [23]: 32.6 µM
TGI [24]: 74.3 µM
TGI [25]: > 100 µM
TGI [26]: > 100 µM
TGI [27]: > 100 µM
TGI [28]: 47.2 µM
TGI [29]: 68 µM
TGI [30]: 95.4 µM
TGI [31]: > 100 µM
TGI [32]: > 100 µM
TGI [33]: 76.5 µM
TGI [34]: 17.4 µM
TGI [35]: 64.3 µM
TGI [36]: > 100 µM
TGI [37]: > 100 µM
TGI [38]: > 100 µM
TGI [39]: > 100 µM
TGI [40]: > 100 µM
TGI [41]: > 100 µM
TGI [42]: > 100 µM
TGI [43]: > 100 µM
TGI [44]: > 100 µM
TGI [45]: > 100 µM
TGI [46]: > 100 µM
TGI [47]: > 100 µM
TGI [48]: > 100 µM
TGI [49]: > 100 µM
TGI [50]: > 100 µM
TGI [51]: > 100 µM
TGI [52]: > 100 µM

CCOC(=O)c1ccc(-c2ccc(Cl)cc2)[nH]1
TGI [1]: > 10 µM
TGI [3]: > 10 µM
TGI [4]: > 10 µM
TGI [5]: > 10 µM
TGI [6]: > 10 µM
TGI [7]: > 10 µM
TGI [8]: > 10 µM
TGI [12]: > 10 µM
TGI [14]: > 10 µM
TGI [15]: > 10 µM
TGI [16]: > 10 µM
TGI [53]: > 10 µM
TGI [18]: > 10 µM
TGI [19]: > 10 µM
TGI [20]: > 10 µM
TGI [21]: > 10 µM
TGI [22]: > 10 µM
TGI [23]: > 10 µM
TGI [25]: > 10 µM
TGI [54]: > 10 µM
TGI [27]: > 10 µM
TGI [55]: > 10 µM
TGI [28]: > 10 µM
TGI [29]: > 10 µM
TGI [30]: > 10 µM
TGI [31]: > 10 µM
TGI [32]: > 10 µM
TGI [33]: > 10 µM
TGI [34]: > 10 µM
TGI [35]: > 10 µM
TGI [36]: > 10 µM
TGI [56]: > 10 µM
TGI [37]: > 10 µM
TGI [39]: > 10 µM
TGI [40]: > 10 µM
TGI [41]: > 10 µM
TGI [43]: > 10 µM
TGI [45]: > 10 µM
TGI [46]: > 10 µM
TGI [47]: > 10 µM
TGI [48]: > 10 µM
TGI [49]: > 10 µM
TGI [50]: > 10 µM
TGI [51]: > 10 µM
TGI [52]: > 10 µM
TGI [57]: > 10 µM

CN1CCCOC(c2ccc(Cl)cc2)O1 (centres undefined)
TGI [1]: > 100 µM
TGI [2]: > 100 µM
TGI [3]: > 100 µM
TGI [4]: > 100 µM
TGI [5]: > 100 µM
TGI [6]: > 100 µM
TGI [7]: > 100 µM
TGI [8]: > 100 µM
TGI [9]: > 100 µM
TGI [10]: > 100 µM
TGI [11]: > 100 µM
TGI [12]: > 100 µM
TGI [13]: > 100 µM
TGI [14]: > 100 µM
TGI [15]: > 100 µM
TGI [16]: > 100 µM
TGI [17]: > 100 µM
TGI [18]: > 100 µM
TGI [19]: > 100 µM
TGI [20]: > 100 µM
TGI [21]: > 100 µM
TGI [22]: > 100 µM
TGI [23]: > 100 µM
TGI [24]: > 100 µM
TGI [25]: > 100 µM
TGI [54]: > 100 µM
TGI [26]: > 100 µM
TGI [27]: > 100 µM
TGI [55]: > 100 µM
TGI [28]: > 100 µM
TGI [29]: > 100 µM
TGI [30]: > 100 µM
TGI [31]: > 100 µM
TGI [32]: > 100 µM
TGI [33]: > 100 µM
TGI [34]: > 100 µM
TGI [35]: > 100 µM
TGI [58]: > 100 µM
TGI [36]: > 100 µM
TGI [37]: > 100 µM
TGI [38]: > 100 µM
TGI [39]: > 100 µM
TGI [40]: > 100 µM
TGI [41]: > 100 µM
TGI [42]: > 100 µM
TGI [43]: > 100 µM
TGI [44]: > 100 µM
TGI [45]: > 100 µM
TGI [46]: > 100 µM
TGI [47]: > 100 µM
TGI [48]: > 100 µM
TGI [49]: > 100 µM
TGI [50]: > 100 µM
TGI [51]: > 100 µM
TGI [52]: > 100 µM
TGI [57]: > 100 µM
